Results on eight compounds are retold here after article PMC11909088, “Synthesis, molecular docking and molecular dynamics simulations, drug-likeness studies, ADMET prediction and biological evaluation of novel pyrazole-carboxamides bearing sulfonamide moiety as potent carbonic anhydrase inhibitors” (Molecular Diversity, 2024).

Data set [1] deals with hCA I (Homo sapiens, UniProt P00915). As to the kind of experiment: Esterase activity inhibition of hCA I purified from human erythrocytes (IC50, Ki). The class given is biochemical. Particulars: for IC50: mean from three assays, spectrophotometric; for IC50 / Ki: NI = No Inhibition; for Inhibition Type hCA I / Ki: Lineweaver-Burk plot; for inhibition effect on hCA I (in words): esterase activity. On the procedure:
(§1) Esterase activities of purified hCA I and hCA II were determined according to the literature. Activity measurement has described in detail in our previous studies.
(§2) The method for determination of Ki values has described in detail in our previous studies. […] The data have linearized with Lineweaver–Burk plot in order to obtain Ki values.
(§3) IC50 and Ki values were expressed by averaging the results from triplicate experiments.
(§4) The enzymatic reaction, in a total volume of 3.0 mL, contained 1.4 mL of 0.05 M TRIS–SO4 buffer (pH 7.4), 1.0 mL of 3.0 mM 4-nitrophenylacetate, 0.5 mL H2O and 0.1 mL enzyme solution. A reference measurement was obtained by preparing the same cuvette without enzyme solution [46–49, 53].
(§5) Regression analysis graphs were drawn by plotting the percent enzyme activity versus inhibitor concentration and IC50 values were calculated.
(§6) Enzyme activity was also measured in the presence of the same substrate concentrations but in the absence of any inhibitor to determine the Vmax.

In data set [2] the target is hCA II (Homo sapiens, UniProt P00918). Nature of the data set: Esterase activity inhibition of hCA II purified from human erythrocytes (IC50, Ki). The class given is biochemical. Particulars: for Inhibition Type hCA II / Ki: Lineweaver-Burk plot; for Ki / IC50: NI = No Inhibition; for IC50: mean from three assays, spectrophotometric; for inhibition effect on hCA II (in words): esterase activity. On the procedure: as §1, §2, §3, §4, §5, §6

Bounds are passed on as bounds.

Chain of hCA I (P00915 whole entry): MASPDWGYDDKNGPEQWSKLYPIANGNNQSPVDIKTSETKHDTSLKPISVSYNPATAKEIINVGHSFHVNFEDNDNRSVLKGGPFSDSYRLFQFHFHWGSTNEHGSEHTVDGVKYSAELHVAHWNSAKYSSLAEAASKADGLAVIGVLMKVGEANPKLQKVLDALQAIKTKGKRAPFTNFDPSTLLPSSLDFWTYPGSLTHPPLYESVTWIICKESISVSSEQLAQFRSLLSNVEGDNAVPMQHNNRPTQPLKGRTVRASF

With `Cc1noc(NS(=O)(=O)c2ccc(NC(=O)c3nn(-c4ccccc4)c(-c4ccccc4)c3C(=O)c3ccccc3)cc2)c1C` [Compound 6g, 4-benzoyl-N-(4-(N-(3,4-dimethylisoxazol-5-yl)sulfamoyl)phenyl)-1,5-diphenyl-1H-pyrazole-3-carboxamide], the melting point (as a rule, the temperature of the solid-liquid transition) lay within 165 to 167 °C. In addition, in data set [1] (at most), the “maximal decrease of hCA I activity” value is reported as at most 50%. In data set [1], half-maximal inhibition (IC50) required 1.66 µM.

Take `NS(=O)(=O)c1cccc(NC(=O)c2nn(-c3ccccc3)c(-c3ccccc3)c2C(=O)c2ccccc2)c1` [Compound 6b, 4-benzoyl-1,5-diphenyl-N-(3-sulfamoylphenyl)-1H-pyrazole-3-carboxamide]: in data set [1], the “Inhibition Type hCA I” value is listed as “Non competitive”; the Ki – broadly, the equilibrium dissociation constant of an inhibitor or competing ligand from its target – was 0.237 µM; it took 0.463 µM to reach half-maximal inhibition (IC50). In data set [2], the “Inhibition Type hCA II” value is given as “Non competitive”; the Ki stood at 0.03 µM; the midpoint of inhibition, the IC50, lay at 0.139 µM. In addition, the “stronger inhibitory effect than AAZ for hCA II” value in data set [2] (compared with reference compound AAZ) is “approximately fivefold”.

For the compound `N=C(N)NS(=O)(=O)c1ccc(NC(=O)c2nn(-c3ccccc3)c(-c3ccccc3)c2C(=O)c2ccccc2)cc1` [Compound 6i, 4-benzoyl-N-(4-(N-carbamimidoylsulfamoyl)phenyl)-1,5-diphenyl-1H-pyrazole-3-carboxamide], the melting point lay within 280 to 282 °C. For the same compound, in data set [1], the “inhibition effect on hCA I (in words)” value is “did not show any inhibition effect”. Besides, the “inhibition effect on hCA II (in words)” value in data set [2] is “did not show any inhibition effect”.

Regarding `NS(=O)(=O)c1ccccc1NC(=O)c1nn(-c2ccccc2)c(-c2ccccc2)c1C(=O)c1ccccc1` [Compound 6c, 4-benzoyl-1,5-diphenyl-N-(2-sulfamoylphenyl)-1H-pyrazole-3-carboxamide], the melting point was in the range of 233 to 235 °C. Moreover, in data set [1], the “Inhibition Type hCA I” value is reported as “Non competitive”, the affinity corresponds to a Ki of 3.37 µM and 6.2 µM corresponded to half-maximal inhibition (IC50). In data set [2], the “Inhibition Type hCA II” value was “Non competitive”, affinity was put at a Ki of 4.23 µM and the IC50 (usually the point on the concentration scale where inhibition reaches its midpoint) stood at 6.41 µM.

On to `Cc1ccnc(NS(=O)(=O)c2ccc(NC(=O)c3nn(-c4ccccc4)c(-c4ccccc4)c3C(=O)c3ccccc3)cc2)n1` [Compound 6f, 4-benzoyl-N-(4-(N-(4-methylpyrimidin-2-yl)sulfamoyl)phenyl)-1,5-diphenyl-1H-pyrazole-3-carboxamide], for which the melting point lay within 237 to 239 °C. Further, in data set [1], the “inhibition effect on hCA I (in words)” value was “did not show any inhibition effect”. In data set [2], the “inhibition effect on hCA II (in words)” value is listed as “did not show any inhibition effect”.

On to `O=C(Nc1ccc(S(=O)(=O)Nc2ccccn2)cc1)c1nn(-c2ccccc2)c(-c2ccccc2)c1C(=O)c1ccccc1` [Compound 6d, 4-benzoyl-1,5-diphenyl-N-(4-(N-(pyridin-2-yl)sulfamoyl)phenyl)-1H-pyrazole-3-carboxamide], for which the melting point lay in the range of 239 to 241 °C. The “inhibition effect on hCA I (in words)” value in data set [1] was “did not show any inhibition effect”. The “inhibition effect on hCA II (in words)” value in data set [2] is on record as “did not show any inhibition effect”.

Turning to `O=C(Nc1ccc(S(=O)(=O)Nc2nccs2)cc1)c1nn(-c2ccccc2)c(-c2ccccc2)c1C(=O)c1ccccc1` [Compound 6h, 4-benzoyl-1,5-diphenyl-N-(4-(N-(thiazol-2-yl)sulfamoyl)phenyl)-1H-pyrazole-3-carboxamide], the melting point lay in the range of 252 to 254 °C. Moreover, the “inhibition effect on hCA II (in words)” value in data set [2] is listed as “did not inhibit”.

The compound `O=C(Nc1ccc(S(=O)(=O)Nc2ncccn2)cc1)c1nn(-c2ccccc2)c(-c2ccccc2)c1C(=O)c1ccccc1` [Compound 6e, 4-benzoyl-1,5-diphenyl-N-(4-(N-(pyrimidin-2-yl)sulfamoyl)phenyl)-1H-pyrazole-3-carboxamide] registered a melting point of 244 to 246 °C. Also, the “inhibition effect on hCA I (in words)” value in data set [1] is “did not show any inhibition effect”. In addition, the “inhibition effect on hCA II (in words)” value in data set [2] is “did not show any inhibition effect”.
